pEC50: −log10 of the molar value. Where a SMILES comes first, the peptide text is derived from it. [ ]: non-standard residue; d: D form. The star is where a group is joined. Octanoyl = CCCCCCCC(=O)*; Aib = CC(C)(N)C(=O)O
Tests used:
Type in all cases: cell-based
GIP receptor = target: T1, GIP receptor (Homo sapiens, UniProt P48546); test: cAMP synthesis functional assay (firefly luciferase reporter in HEK293 cells), GIP receptor; details: for GIP Receptor relative activity: relative to the standard (Std.) EC50 of the same run
T1 construct: expressed in transfected cells; host or cells: HEK293
T1 sequence (P48546 22-466): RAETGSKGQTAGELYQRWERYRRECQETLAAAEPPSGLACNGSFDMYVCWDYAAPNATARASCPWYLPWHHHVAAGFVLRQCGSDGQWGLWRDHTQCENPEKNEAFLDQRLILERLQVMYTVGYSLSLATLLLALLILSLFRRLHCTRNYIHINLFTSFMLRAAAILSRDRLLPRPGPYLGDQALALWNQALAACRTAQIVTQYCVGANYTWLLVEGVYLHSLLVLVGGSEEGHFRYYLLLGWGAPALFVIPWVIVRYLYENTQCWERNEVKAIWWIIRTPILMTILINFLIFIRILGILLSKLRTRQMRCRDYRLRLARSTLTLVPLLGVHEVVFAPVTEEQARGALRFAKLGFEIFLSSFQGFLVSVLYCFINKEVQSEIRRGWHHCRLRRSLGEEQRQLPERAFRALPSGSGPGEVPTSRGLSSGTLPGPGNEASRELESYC

[1] = tested on: glucagon receptor, GLP-1 receptor or GIP receptor; test: Agonist profile across receptors assigned from the cAMP reporter assay data; details: assigned from the in vitro EC50 data of Tables 1-4
glucagon receptor = target: T2, glucagon receptor (Homo sapiens, UniProt P47871); test: cAMP synthesis functional assay (firefly luciferase reporter in HEK293 cells), glucagon receptor; details: for pEC50: Glucagon Receptor EC50, cAMP luciferase reporter assay as in Example 16; for Glucagon Receptor relative activity: relative to the standard (Std.) EC50 of the same run
T2 construct: expressed in transfected cells; host or cells: HEK293
T2 sequence (P47871 26-477): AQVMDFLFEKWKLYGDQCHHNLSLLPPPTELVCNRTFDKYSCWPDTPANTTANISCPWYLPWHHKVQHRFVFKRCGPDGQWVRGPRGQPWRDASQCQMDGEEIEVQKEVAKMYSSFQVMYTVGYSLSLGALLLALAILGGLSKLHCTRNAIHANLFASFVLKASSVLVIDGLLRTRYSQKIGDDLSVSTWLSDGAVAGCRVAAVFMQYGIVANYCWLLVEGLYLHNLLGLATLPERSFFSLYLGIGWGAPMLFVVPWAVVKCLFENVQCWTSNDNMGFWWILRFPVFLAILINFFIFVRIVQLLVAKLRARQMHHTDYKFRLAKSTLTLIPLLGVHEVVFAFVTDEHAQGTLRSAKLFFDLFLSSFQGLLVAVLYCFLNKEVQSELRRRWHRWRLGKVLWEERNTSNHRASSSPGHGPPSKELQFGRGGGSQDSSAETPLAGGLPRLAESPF

GLP-1 receptor = target: T3, GLP-1 receptor (Homo sapiens, UniProt P43220); test: cAMP synthesis functional assay (firefly luciferase reporter in HEK293 cells), GLP-1 receptor; details: for pEC50: GLP-1 Receptor EC50, cAMP luciferase reporter assay as in Example 16; for GLP-1 Receptor relative activity: relative to the standard (Std.) EC50 of the same run
T3 construct: expressed in transfected cells; host or cells: HEK293
T3 sequence (P43220 24-463, species assumed): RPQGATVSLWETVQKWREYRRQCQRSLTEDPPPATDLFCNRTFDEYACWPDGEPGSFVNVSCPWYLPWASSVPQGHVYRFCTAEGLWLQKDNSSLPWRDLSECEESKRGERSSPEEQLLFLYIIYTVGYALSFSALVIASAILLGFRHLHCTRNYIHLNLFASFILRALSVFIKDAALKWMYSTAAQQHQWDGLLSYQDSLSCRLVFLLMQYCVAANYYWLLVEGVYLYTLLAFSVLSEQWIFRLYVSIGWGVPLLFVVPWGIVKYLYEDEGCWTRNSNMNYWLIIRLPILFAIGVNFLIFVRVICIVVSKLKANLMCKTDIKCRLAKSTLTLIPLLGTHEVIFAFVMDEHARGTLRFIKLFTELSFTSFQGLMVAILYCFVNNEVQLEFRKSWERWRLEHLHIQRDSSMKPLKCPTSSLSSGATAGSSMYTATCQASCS

## CCCCCCCCCCCCCCCC(=O)NCCCC[C@H](NC(=O)[C@H](CO)NC(=O)[C@@H]1CCCN1C(=O)[C@@H]1CCCN1C(=O)[C@@H]1CCCN1C(=O)[C@H](C)NC(=O)CNC(=O)[C@H](CO)NC(=O)[C@H](CO)NC(=O)[C@@H]1CCCN1C(=O)CNC(=O)CNC(=O)[C@H](C)NC(=O)[C@H](CC(C)C)NC(=O)[C@H](CC(C)C)NC(=O)[C@H](Cc1c[nH]c2ccccc12)NC(=O)[C@H](CS)NC(=O)[C@@H](NC(=O)[C@H](Cc1ccccc1)NC(=O)[C@H](CCC(=O)O)NC(=O)C(C)(C)NC(=O)[C@H](C)NC(=O)[C@H](C)NC(=O)[C@H](CCC(N)=O)NC(=O)[C@H](CCCCN)NC(=O)[C@H](CC(=O)O)NC(=O)[C@H](CC(C)C)NC(=O)[C@H](Cc1ccc(O)cc1)NC(=O)[C@@H](NC(=O)[C@H](CO)NC(=O)[C@H](Cc1ccc(O)cc1)NC(=O)[C@H](CC(=O)O)NC(=O)[C@H](CO)NC(=O)[C@@H](NC(=O)[C@H](Cc1ccccc1)NC(=O)[C@@H](NC(=O)CNC(=O)[C@H](CCC(=O)O)NC(=O)C(C)(C)NC(=O)[C@@H](N)Cc1ccc(O)cc1)[C@@H](C)O)[C@@H](C)O)[C@@H](C)CC)C(C)C)C(N)=O [mt-296]
GIP receptor
  GIP Receptor relative activity: 211.69%
[1]
  receptor activity profile (glucagon / GLP-1 / GIP agonism): exhibited activity at the GIP, GLP-1, and glucagon receptors
Glucagon receptor
  pEC50: 9.38
  Glucagon Receptor relative activity: 11.34%
GLP-1 receptor
  pEC50: 10.91
  GLP-1 Receptor relative activity: 130.65%

## CCCCCCCCCCCCCCCC(=O)NCCCC[C@H](NC(=O)[C@H](CO)NC(=O)[C@@H]1CCCN1C(=O)[C@@H]1CCCN1C(=O)[C@@H]1CCCN1C(=O)[C@H](C)NC(=O)CNC(=O)[C@H](CO)NC(=O)[C@H](CO)NC(=O)[C@@H]1CCCN1C(=O)CNC(=O)CNC(=O)[C@H](CC(N)=O)NC(=O)[C@H](CCSC)NC(=O)[C@H](CC(C)C)NC(=O)[C@H](Cc1c[nH]c2ccccc12)NC(=O)[C@H](CS)NC(=O)[C@@H](NC(=O)[C@H](Cc1ccccc1)NC(=O)[C@H](CCC(=O)O)NC(=O)C(C)(C)NC(=O)[C@H](C)NC(=O)[C@H](C)NC(=O)[C@H](CCC(N)=O)NC(=O)[C@H](CCCCN)NC(=O)[C@H](CC(=O)O)NC(=O)[C@H](CC(C)C)NC(=O)[C@H](Cc1ccc(O)cc1)NC(=O)[C@@H](NC(=O)[C@H](CO)NC(=O)[C@H](Cc1ccc(O)cc1)NC(=O)[C@H](CC(=O)O)NC(=O)[C@H](CO)NC(=O)[C@@H](NC(=O)[C@H](Cc1ccccc1)NC(=O)[C@@H](NC(=O)CNC(=O)[C@H](CCC(N)=O)NC(=O)C(C)(C)NC(=O)[C@@H](N)Cc1ccc(O)cc1)[C@@H](C)O)[C@@H](C)O)[C@@H](C)CC)C(C)C)C(N)=O [mt-297]
GIP receptor; GIP Receptor EC50, cAMP luciferase reporter assay as in Example 16
  pEC50: 10.77
GIP receptor
  GIP Receptor relative activity: 97.02%
[1]
  receptor activity profile (glucagon / GLP-1 / GIP agonism): exhibited activity at the GIP, GLP-1, and glucagon receptors
Glucagon receptor
  pEC50: 10.88
  Glucagon Receptor relative activity: 362.12%
GLP-1 receptor
  pEC50: 10.89
  GLP-1 Receptor relative activity: 125.58%

## CCCCCCCCCCCCCC(=O)NCCCC[C@H](NC(=O)[C@H](CO)NC(=O)[C@@H]1CCCN1C(=O)[C@@H]1CCCN1C(=O)[C@@H]1CCCN1C(=O)[C@H](C)NC(=O)CNC(=O)[C@H](CO)NC(=O)[C@H](CO)NC(=O)[C@@H]1CCCN1C(=O)CNC(=O)CNC(=O)[C@H](C)NC(=O)[C@H](CC(C)C)NC(=O)[C@H](CC(C)C)NC(=O)[C@H](Cc1c[nH]c2ccccc12)NC(=O)[C@H](CS)NC(=O)[C@@H](NC(=O)[C@H](Cc1ccccc1)NC(=O)[C@H](CCC(=O)O)NC(=O)C(C)(C)NC(=O)[C@H](C)NC(=O)[C@H](C)NC(=O)[C@H](CCC(N)=O)NC(=O)[C@H](CCCCN)NC(=O)[C@H](CC(=O)O)NC(=O)[C@H](CC(C)C)NC(=O)[C@H](Cc1ccc(O)cc1)NC(=O)[C@@H](NC(=O)[C@H](CO)NC(=O)[C@H](Cc1ccc(O)cc1)NC(=O)[C@H](CC(=O)O)NC(=O)[C@H](CO)NC(=O)[C@@H](NC(=O)[C@H](Cc1ccccc1)NC(=O)[C@@H](NC(=O)CNC(=O)[C@H](CCC(=O)O)NC(=O)C(C)(C)NC(=O)[C@@H](N)Cc1ccc(O)cc1)[C@@H](C)O)[C@@H](C)O)[C@@H](C)CC)C(C)C)C(N)=O [mt-306]
GIP receptor
  GIP Receptor relative activity: 254.69%
[1]
  receptor activity profile (glucagon / GLP-1 / GIP agonism): exhibited activity at the GIP, GLP-1, and glucagon receptors
Glucagon receptor
  pEC50: 8.83
  Glucagon Receptor relative activity: 3.20%
GLP-1 receptor
  GLP-1 Receptor relative activity: 80.60%

## CCCCCCCCCCCCCCCCCC(=O)NCCCC[C@H](NC(=O)[C@H](CO)NC(=O)[C@@H]1CCCN1C(=O)[C@@H]1CCCN1C(=O)[C@@H]1CCCN1C(=O)[C@H](C)NC(=O)CNC(=O)[C@H](CO)NC(=O)[C@H](CO)NC(=O)[C@@H]1CCCN1C(=O)CNC(=O)CNC(=O)[C@H](C)NC(=O)[C@H](CC(C)C)NC(=O)[C@H](CC(C)C)NC(=O)[C@H](Cc1c[nH]c2ccccc12)NC(=O)[C@H](CS)NC(=O)[C@@H](NC(=O)[C@H](Cc1ccccc1)NC(=O)[C@H](CCC(=O)O)NC(=O)C(C)(C)NC(=O)[C@H](C)NC(=O)[C@H](C)NC(=O)[C@H](CCC(N)=O)NC(=O)[C@H](CCCCN)NC(=O)[C@H](CC(=O)O)NC(=O)[C@H](CC(C)C)NC(=O)[C@H](Cc1ccc(O)cc1)NC(=O)[C@@H](NC(=O)[C@H](CO)NC(=O)[C@H](Cc1ccc(O)cc1)NC(=O)[C@H](CC(=O)O)NC(=O)[C@H](CO)NC(=O)[C@@H](NC(=O)[C@H](Cc1ccccc1)NC(=O)[C@@H](NC(=O)CNC(=O)[C@H](CCC(=O)O)NC(=O)C(C)(C)NC(=O)[C@@H](N)Cc1ccc(O)cc1)[C@@H](C)O)[C@@H](C)O)[C@@H](C)CC)C(C)C)C(N)=O [mt-307]
GIP receptor
  GIP Receptor relative activity: 128.35%
[1]
  receptor activity profile (glucagon / GLP-1 / GIP agonism): exhibited activity at the GIP, GLP-1, and glucagon receptors
Glucagon receptor
  pEC50: 9.54
  Glucagon Receptor relative activity: 16.61%
GLP-1 receptor
  GLP-1 Receptor relative activity: 113.29%

## CCCCCCCC(=O)NCCCC[C@H](NC(=O)[C@H](CO)NC(=O)[C@@H]1CCCN1C(=O)[C@@H]1CCCN1C(=O)[C@@H]1CCCN1C(=O)[C@H](C)NC(=O)CNC(=O)[C@H](CO)NC(=O)[C@H](CO)NC(=O)[C@@H]1CCCN1C(=O)CNC(=O)CNC(=O)[C@H](C)NC(=O)[C@H](CC(C)C)NC(=O)[C@H](CC(C)C)NC(=O)[C@H](Cc1c[nH]c2ccccc12)NC(=O)[C@H](CC(N)=O)NC(=O)[C@@H](NC(=O)[C@H](Cc1ccccc1)NC(=O)[C@H](CCC(=O)O)NC(=O)C(C)(C)NC(=O)[C@H](C)NC(=O)[C@H](C)NC(=O)[C@H](CCC(N)=O)NC(=O)[C@H](CCCCN)NC(=O)[C@H](CC(=O)O)NC(=O)[C@H](CC(C)C)NC(=O)[C@H](Cc1ccc(O)cc1)NC(=O)[C@@H](NC(=O)[C@H](CO)NC(=O)[C@H](Cc1ccc(O)cc1)NC(=O)[C@H](CC(=O)O)NC(=O)[C@H](CO)NC(=O)[C@@H](NC(=O)[C@H](Cc1ccccc1)NC(=O)[C@@H](NC(=O)CNC(=O)[C@H](CCC(N)=O)NC(=O)C(C)(C)NC(=O)[C@@H](N)Cc1ccc(O)cc1)[C@@H](C)O)[C@@H](C)O)[C@@H](C)CC)C(C)C)C(N)=O [mt-323] (H-Y[Aib]QGTFTSDYSIYLDKQAA[Aib]EFVNWLLAGGPSSGAPPPSK(Octanoyl)-NH2; N-terminus assumed)
GIP receptor
  GIP Receptor relative activity: 122.62%
[1]
  receptor activity profile (glucagon / GLP-1 / GIP agonism): exhibited activity at the GIP, GLP-1, and glucagon receptors
Glucagon receptor
  pEC50: 9.66
  Glucagon Receptor relative activity: 39.00%
GLP-1 receptor
  pEC50: 10.24
  GLP-1 Receptor relative activity: 35.55%

## CC[C@H](C)[C@H](NC(=O)[C@H](CO)NC(=O)[C@H](Cc1ccc(O)cc1)NC(=O)[C@H](CC(=O)O)NC(=O)[C@H](CO)NC(=O)[C@H](CO)NC(=O)[C@H](Cc1ccccc1)NC(=O)[C@@H](NC(=O)CNC(=O)[C@H](CCC(N)=O)NC(=O)C(C)(C)NC(=O)[C@@H](N)Cc1ccc(O)cc1)[C@@H](C)O)C(=O)N[C@@H](Cc1ccc(O)cc1)C(=O)N[C@@H](CC(C)C)C(=O)N[C@@H](CC(=O)O)C(=O)N[C@@H](CCCCN)C(=O)N[C@@H](CCC(N)=O)C(=O)N[C@@H](C)C(=O)N[C@@H](C)C(=O)NC(C)(C)C(=O)N[C@@H](CCC(=O)O)C(=O)N[C@@H](Cc1ccccc1)C(=O)N[C@H](C(=O)N[C@@H](CC(N)=O)C(=O)N[C@@H](Cc1c[nH]c2ccccc12)C(=O)N[C@@H](CC(C)C)C(=O)N[C@@H](CC(C)C)C(=O)N[C@@H](C)C(=O)NCC(=O)NCC(=O)N1CCC[C@H]1C(=O)N[C@@H](CO)C(=O)N[C@@H](CO)C(=O)NCC(=O)N[C@@H](C)C(=O)N1CCC[C@H]1C(=O)N1CCC[C@H]1C(=O)N1CCC[C@H]1C(=O)N[C@@H](CO)C(=O)N[C@@H](CS)C(N)=O)C(C)C [mt-324] (H-Y[Aib]QGTFSSDYSIYLDKQAA[Aib]EFVNWLLAGGPSSGAPPPSC-NH2; N-terminus assumed)
GIP receptor
  GIP Receptor relative activity: 30.23%
[1]
  receptor activity profile (glucagon / GLP-1 / GIP agonism): exhibited activity at the GIP, GLP-1, and glucagon receptors
Glucagon receptor
  Glucagon Receptor relative activity: 6.41%
GLP-1 receptor
  GLP-1 Receptor relative activity: 9.68%

From patent publication US9062124B2, “GIP-based mixed agonists for treatment of metabolic disorders and obesity” (priority 2008, dated 2015)
